# Source: patent US7799831B2, “Lipophilic diesters of chelating agent for inhibition of enzyme activity” (D-Pharm Ltd., priority 2002, dated 2010)
# Experiments:
# MMP-9 [1] = target: T1, MMP-9 (Rattus norvegicus, UniProt P50282); assay: MMP-9 gelatinase activity by gelatin zymogram of conditioned media from C6 glioma cells (basal, TNFα- or PMA-induced); format: cell-based; conditions: for Effect on MMP-9 activity: C6 glioma cells stimulated with TNFα
# Protocol: C6 rat glioma cells (ATCC; CRL-2199) grown on 100 mm petri dishes were detached by trypsinization and cultured to a density of 10^5 cells/well on 24-well plates in DMEM+10% FCS. The TNFα-treated cells which were stimulated to induce gelatinases were incubated, on the next day after plating, for 18 hours in DMEM without serum in the presence of either 20 ng/ml or 40 ng/ml
# TNFα (R&D, cat. #410-TRNC). Different concentrations of the tested compound, as indicated, in 0.48% fatty acid free BSA, 0.4% ethanol were added to the cells that were then incubated for a total of 18-24 hours at 37° C. Cells treated with vehicle only served as control group.
# Conditioned media (CM) were then collected, centrifuged at 2000 rpm for 5 min., and supernatants were transferred to new tubes. MMP gelatinase activity was determined by using zymogram gels (Invitrogen, cat. #EC6175) which include gelatin as a substrate. Samples were loaded on gels in 62.5 mM Tris-HCl pH 6.8, 10% glycerol, 2% SDS and traces of bromophenol-blue. Gels were run in Tris/glycine-SDS running buffer, washed for 30 min. with renaturing buffer (Invitrogen) and for further 30 min. with developing buffer (Invitrogen). MMP activity was developed overnight at 37° C. with fresh developing buffer. The gels were then stained for one hour with Coomasie Blue (Brilliant Blue R, Sigma, cat. #B-8647) in 40% methanol and 7% acetic acid, and destained with 30% methanol/10% acetic acid. […] Band analysis was determined using the Kodak digital Science™ 1D Image Analysis Software. Treatments were performed in triplicates and were subjected to three separate zymogram gels.
# C6 glioma cells were grown and treated as described above in Example 3, except that cells were stimulated with either 20 ng/ml TNFα (R&D, cat. #410-TRNC) or 0.1 μM Phorbol 12-myristate 13-acetate (PMA, Sigma, cat. #P-8139). […]
# Assays were performed in triplicates and zymogram analysis was carried out as described above in Example 3. IC50 values for each of the tested DP-BAPTA compounds were calculated.
# Target sequence in this assay (P50282 108-708): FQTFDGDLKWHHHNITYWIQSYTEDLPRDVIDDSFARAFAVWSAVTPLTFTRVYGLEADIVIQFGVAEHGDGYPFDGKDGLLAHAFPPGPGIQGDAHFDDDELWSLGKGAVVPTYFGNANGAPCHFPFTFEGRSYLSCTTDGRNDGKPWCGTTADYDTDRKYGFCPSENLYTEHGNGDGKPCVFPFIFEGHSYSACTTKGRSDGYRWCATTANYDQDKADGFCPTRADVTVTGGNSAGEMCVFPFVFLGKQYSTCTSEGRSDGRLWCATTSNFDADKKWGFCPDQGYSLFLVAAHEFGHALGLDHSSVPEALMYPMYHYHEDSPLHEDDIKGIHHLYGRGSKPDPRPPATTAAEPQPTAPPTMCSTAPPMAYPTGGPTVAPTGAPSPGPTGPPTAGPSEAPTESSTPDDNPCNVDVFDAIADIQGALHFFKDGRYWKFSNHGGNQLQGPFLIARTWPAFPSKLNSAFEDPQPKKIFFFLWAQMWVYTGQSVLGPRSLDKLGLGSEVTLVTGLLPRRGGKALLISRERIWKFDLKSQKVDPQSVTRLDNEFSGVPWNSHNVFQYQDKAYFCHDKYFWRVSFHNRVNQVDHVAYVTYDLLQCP
# calpain = assay: Calpain-cleaved spectrin in brain hemispheres after transient MCA occlusion; format: in vivo, rat; conditions: SD rats, 2 h MCAO, 5 μg/kg i.p. at start of reperfusion
# Protocol: Transient middle cerebral artery (MCA) occlusion was performed in male Sprague Dawley (SD) rats by applying 4-0 silicone-coated nylon monofilament through external carotid artery. The animals were anesthetized with 4% halothane and maintained at 1.5% halothane in a 1:2 mixture of nitrous oxide and oxygen without tracheotomy and allowed to breathe spontaneously. Via a ventral cutaneous the common, right external and internal carotid arteries (ECA) were exposed. A suture was introduced into a ligated right external carotid artery, in a retrograde fashion towards the carotid bifurcation. It was then directed distally up to the right internal carotid artery to a distance of 20 mm from the carotid bifurcation to […] occlude the origin of the MCA. It was secured with silk ligatures. Two hours after occlusion the monofilament was withdrawn to allow reperfusion and the cutaneous wound was sutured and cleaned. The whole procedure took about 25 min., with rectal temperature maintained throughout at 37° C. […]
# Assay for Calpain activity: Each hemisphere was separately lysed by homogenization on ice in 5 ml RIPA buffer (50 mM Tris pH 7.5; 150 mM NaCl; 0.5% DOC; 1% Triton X-100; 0.1% SDS; 1 mM Nappi; 2 mM EDTA) plus protease inhibitors (Bohringer, Manheim, Germany). […] Quantitation of the bands was performed using the Kodak 1D software. […]
# MMP-9 [2] = target: T1, MMP-9; assay: MMP-9 zymogram of conditioned media from primary cortical glial cells (basal and TNFα-induced); format: cell-based; parameters: endogenous in cells; host or cells: primary cortical glial cells from rat embryos; conditions: 25 μM compound
# Protocol: Cortical glial cells from rat embryos (day 18 of pregnancy) were seeded on poly-D-lysine coated 24-well plates with MEM medium containing 5% FCS, 5% HS, 2 mM 1-glutamine and 0.6% glucose, at a density of 5×10^4 cells/well. After 4 days in culture, the medium was changed to MEM+10% FCS. When glial cells reached confluence (around 17 days after plating), they were exposed for 24 hours to 10 ng/ml or 20 ng/ml human TNFα in order to induce MMP-9. The induction was performed either in the absence or presence of 25 μM DP-b99 (dilution 1:200 with medium from a stock of 5 mM in sodium citrate buffer) in a serum-free medium containing 5 mg/ml BSA (essentially fatty acid free). Conditioned media (CM) were collected and 12 μl of each of the triplicates was subjected to separate zymogram gels, as described above in Example 3.
# A quantitative analysis of the MMP-9 bands, representing the pro- and active forms of the enzyme, was performed on the triplicate zymograms. The results were normalized to percentage of control values (=100%) and are depicted in FIGS. 3B and 3C that represent, respectively, the biologically active- and pro-MMP-9 forms of the enzyme.
# MMP-2 = target: T2, MMP-2 (Rattus norvegicus, UniProt P33436); assay: MMP-2 activity in brain hemisphere lysates after unilateral MCAO (zymogram); format: in vivo; conditions: SD rats, 2 h MCAO, 5 μg/kg i.p. single dose, sacrificed after 24 hrs
# T2 construct: each hemisphere of their brains was subjected separately to lysis and extracted for enzymatic activity; from tissue; host or cells: rat brain hemispheres (Sprague-Dawley, MCAO)
# T2 sequence (P33436 110-662): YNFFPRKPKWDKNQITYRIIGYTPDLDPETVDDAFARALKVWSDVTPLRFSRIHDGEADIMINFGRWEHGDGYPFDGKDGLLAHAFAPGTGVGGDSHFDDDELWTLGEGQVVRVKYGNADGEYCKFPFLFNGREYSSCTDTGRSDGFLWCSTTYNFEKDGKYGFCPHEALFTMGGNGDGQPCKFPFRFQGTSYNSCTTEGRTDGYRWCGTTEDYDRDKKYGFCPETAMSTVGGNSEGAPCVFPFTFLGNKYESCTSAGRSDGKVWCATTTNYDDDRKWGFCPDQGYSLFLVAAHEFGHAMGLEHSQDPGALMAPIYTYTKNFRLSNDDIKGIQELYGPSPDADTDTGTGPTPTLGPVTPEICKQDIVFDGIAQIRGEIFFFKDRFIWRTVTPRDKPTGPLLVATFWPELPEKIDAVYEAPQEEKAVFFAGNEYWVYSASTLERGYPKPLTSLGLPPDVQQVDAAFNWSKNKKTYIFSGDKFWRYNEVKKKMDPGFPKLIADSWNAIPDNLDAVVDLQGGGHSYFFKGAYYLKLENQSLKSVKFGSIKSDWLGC
# MMP-9 [3] = target: T1, MMP-9; assay: MMP-9 activity in brain hemisphere lysates after unilateral MCAO (zymogram); format: in vivo; parameters: each hemisphere of their brains was subjected separately to lysis and extracted for enzymatic activity; from tissue; host or cells: rat brain hemispheres (Sprague-Dawley, MCAO); conditions: SD rats, 2 h MCAO, 5 μg/kg i.p. single dose, sacrificed after 24 hrs
# Protocol: Six Sprague-Dawley (SD) rats were subjected to unilateral (right hemisphere) Middle Cerebral Artery Occlusion (MCAO) for 2 hours. 5 μg/kg DP-b99 in 0.02% sodium citrate in saline was i.p. administered to three animals in a single dose, followed by 2 hrs. reperfusion. The other three animals were treated with vehicle instead of DP-b99. A rat that was only operated with no further treatment was used as a sham control.
# The seven rats were sacrificed after 24 hrs. and each hemisphere of their brains was subjected separately to lysis and extracted for enzymatic activity. Brains were minced and solubilized in lysis buffer (25 mM Tris-HCl pH 7.5, 1% IGEPAL CA-630—a non-ionic detergent from Sigma, 100 mM NaCl, 0.5 U/ml aprotinin, 0.01% sodium azide) at a final concentration of 400 mg/ml. The preparations were incubated for 24 hrs. at 4° C. before lysates were centrifuged at 14,000 rpm for 15 min. and supernatants were collected.
# Protein concentration was determined by the Bradford assay and 40 μg protein from each lysate were loaded on gelatin zymogram gels for determination of MMP-9 levels. Gels were developed for 48 hrs. Quantitative analysis of the gels was performed using the Kodak Digital System and Kodak 1D software as described in Example 3.
# Target sequence in this assay (P50282 108-708): as the sequence (P50282 108-708) above
# MMP-9 [4] = assay: Total MMP-9 protein immunoassay (Quantikine) in conditioned media of TNFα-treated A-172 glioma cells; format: cell-based, human; conditions: A-172 cells, 10 ng/ml TNFα, 20 or 50 μM compound
# Protocol: (§1) A-172 human glioma cells (ATCC; CRL-1620) were grown and treated with 10 ng/ml TNFα in the presence of 0, 20 or 50 μM DP-b109 following the procedure as described above in Example 3. Cells treated with vehicle without the TNFα treatment, served as control groups.
# (§2) CM from each treatment group was collected and subjected to zymogram gels (see procedure in Example 3), to MMP-9 immunoassay and to MMP-9 activity assay.
# The total amount of MMP-9 protein was determined by immunoassay using the Quantikine™ (R&D Systems, U.S.A., Cat # DMP900) kit and following the manufacturer's instructions.
# MMP-9 [5] = target: T3, MMP-9 (Homo sapiens, UniProt P14780); assay: MMP-9 activity assay (BioTrak) in conditioned media of TNFα-treated A-172 glioma cells; format: cell-based; conditions: A-172 cells, 10 ng/ml TNFα, 20 or 50 μM compound
# T3 construct: endogenous in cells; host or cells: A-172 human glioma cells (ATCC CRL-1620)
# T3 sequence (P14780 107-707 limits assumed): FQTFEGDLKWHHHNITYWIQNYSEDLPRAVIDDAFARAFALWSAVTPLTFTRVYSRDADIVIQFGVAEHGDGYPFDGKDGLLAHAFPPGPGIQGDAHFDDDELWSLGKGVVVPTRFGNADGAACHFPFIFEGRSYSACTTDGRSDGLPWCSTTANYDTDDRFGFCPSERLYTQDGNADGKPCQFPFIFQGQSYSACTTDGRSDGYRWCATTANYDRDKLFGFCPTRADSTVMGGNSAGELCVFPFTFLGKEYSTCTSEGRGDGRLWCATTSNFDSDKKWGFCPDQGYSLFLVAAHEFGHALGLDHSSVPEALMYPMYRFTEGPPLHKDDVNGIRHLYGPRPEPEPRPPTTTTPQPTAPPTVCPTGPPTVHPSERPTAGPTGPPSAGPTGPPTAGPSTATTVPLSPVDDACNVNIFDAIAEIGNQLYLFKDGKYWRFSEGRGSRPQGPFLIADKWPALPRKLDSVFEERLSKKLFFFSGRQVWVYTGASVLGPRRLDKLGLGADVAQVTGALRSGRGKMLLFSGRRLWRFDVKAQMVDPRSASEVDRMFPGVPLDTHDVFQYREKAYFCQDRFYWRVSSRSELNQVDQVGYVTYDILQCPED
# Protocol: as §1, §2
# MMP-9 activity was assayed using the MMP-9 activity assay system (BioTrak™, Amersham, U.K., Cat. # RPN 2634), which quantifies the amount of the active MMP-9 form (see BioTrak kit instructions).
structure (smiles),measurement,setting,value
"O=C(O)CN(CC(=O)O)c1ccccc1OCCOc1ccccc1N(CC(=O)O)CC(=O)O [BAPTA, 1,2-bis(2 aminophenoxy)ethane-N,N,N′,N′-tetraacetic acid]",Effect on MMP-9 activity,MMP-9 [1],did not affect the MMP-9 activity
"CC(=O)OCOC(=O)CN(CC(=O)OCOC(C)=O)c1ccccc1OCCOc1ccccc1N(CC(=O)OCOC(C)=O)CC(=O)OCOC(C)=O [BAPTA-AM, 1,2-bis(2-aminophenoxy)ethane-N,N,N′,N′-tetra-acetic acid acetoxymethyl ester]",Effect on MMP-9 activity,MMP-9 [1],increased rather than decreased the MMP-9 activity
same,Effect on TNFα-induced MMP-9 activity,"MMP-9 [1]; C6 glioma cells, 20 ng/ml TNFα, compounds at 1, 5, 10 and 20 μM, zymogram",Increased
"CCCCCCCCOCCOC(=O)CN(CC(=O)O)c1ccccc1OCCOc1ccccc1N(CC(=O)O)CC(=O)OCCOCCCCCCCC [DP-b99, 1,2-bis(2-aminophenoxy)ethane, N,N′-di(2-octoxyethyl acetate), N,N′-diacetic acid]",Increase in cleaved spectrin over the sham-operated values,calpain,about 50%
same,Cleaved spectrin (R/L hemisphere),"calpain; sacrificed four hours later, n=2",1.42 ± 0.08
same,"Active MMP-9 form, TNFα treated cells",MMP-9 [2]; 10 or 20 ng/ml TNFα,reduced
same,"Pro-MMP-9 form, TNFα treated cells",MMP-9 [2]; 10 or 20 ng/ml TNFα,reduced
same,"Active MMP-9 band, un-stimulated cells",MMP-9 [2]; no TNFα,abolished
same,"Pro-MMP-9 band intensity, un-stimulated cells",MMP-9 [2]; no TNFα,increased the band intensity
same,MMP-2 activity level,MMP-2,unaffected
same,MMP-9 activity R/L ratio (injured/intact hemisphere),MMP-9 [3],3.0
"CCCCCCCCCCCCCCCCCCOCCOC(=O)CN(CC(=O)O)c1ccccc1OCCOc1ccccc1N(CC(=O)O)CC(=O)OCCOCCCCCCCCCCCCCCCCCC [DP-b109, 1,2-bis(2-aminophenoxy)ethane, N,N′-di(2-octodecyloxyethyl acetate), N,N′-diacetic acid]",Level of total MMP-9 protein in conditioned media,MMP-9 [4],"reduces, in a dose-dependent fashion"
same,TNFα-induced increase in active MMP-9,MMP-9 [5],reduced to the baseline level
